According to PubChem BioAssay AID288 (DTP/NCI, 2004):
Where “and” joins values, the source holds several entries; their conditions need not be identical. Equal entries are not always repeated. Results filed as inconclusive are left out.

System: BDF1 mice, M5076 sarcoma s.c., survival/tumor T/C
Experiment: NCI In Vivo Anticancer Drug Screen. Data for tumor model Sarcoma M5076 (subcutaneous) in B6D2F1 (BDF1) mice
Experimental: The antitumor activity of compounds was measured in mice bearing transplantable tumors. Survival or tumor size were measured and the results are expressed as the measurement made in the treated group (T) divided by the measurement made in the vehicle treated control group (C). The tumor model used in this assay is Sarcoma M5076 (subcutaneous) in B6D2F1 (BDF1) mice

NCCNCC(O)CO (centres undefined)
T/C (endpoint: median survival time, dose: 50.0 mg/kg/injection, schedule: Q01DX009 (ip), vehicle: saline, higher = longer survival): 90 % of control
T/C (endpoint: median survival time, dose: 100.0 mg/kg/injection, schedule: Q01DX009 (ip), vehicle: saline, higher = longer survival): 112 % of control
T/C (endpoint: median survival time, dose: 200.0 mg/kg/injection, schedule: Q01DX009 (ip), vehicle: saline, higher = longer survival): 105 % of control
T/C (endpoint: median tumor weight (est.), dose: 100.0 mg/kg/injection, schedule: Q01DX009 (ip), vehicle: saline, higher = larger tumour): 76 % of control
T/C (endpoint: median tumor weight (est.), dose: 200.0 mg/kg/injection, schedule: Q01DX009 (ip), vehicle: saline, higher = larger tumour): 115 % of control

NC(C/[N+]([O-])=N/O)C(=O)O (centres undefined)
T/C (endpoint: mean tumor weight, dose: 62.5 mg/kg/injection, schedule: Q02DX011 (ip), vehicle: saline, higher = larger tumour): 88 % of control
T/C (endpoint: mean tumor weight, dose: 125.0 mg/kg/injection, schedule: Q02DX011 (ip), vehicle: saline, higher = larger tumour): 108 % of control
T/C (endpoint: mean tumor weight, dose: 250.0 mg/kg/injection, schedule: Q02DX011 (ip), vehicle: saline, higher = larger tumour): 42 % of control
T/C (endpoint: median survival time, dose: 8.78 mg/kg/injection, schedule: Q01DX010 (ip), vehicle: alkali diluted with saline, higher = longer survival): 88 % of control and 90 % of control
T/C (endpoint: median survival time, dose: 13.2 mg/kg/injection, schedule: Q01DX010 (ip), vehicle: alkali diluted with saline, higher = longer survival): 91 % of control and 93 % of control
T/C (endpoint: median survival time, dose: 19.8 mg/kg/injection, schedule: Q01DX010 (ip), vehicle: alkali diluted with saline, higher = longer survival): 118 % of control
T/C (endpoint: median survival time, dose: 29.6 mg/kg/injection, schedule: Q01DX010 (ip), vehicle: alkali diluted with saline, higher = longer survival): 114 % of control and 118 % of control
T/C (endpoint: median survival time, dose: 44.4 mg/kg/injection, schedule: Q01DX010 (ip), vehicle: alkali diluted with saline, higher = longer survival): 105 % of control and 106 % of control
T/C (endpoint: median survival time, dose: 52.7 mg/kg/injection, schedule: Q04DX005 (ip), vehicle: alkali diluted with saline, higher = longer survival): 89 % of control and 90 % of control
T/C (endpoint: median survival time, dose: 66.7 mg/kg/injection, schedule: Q01DX010 (ip), vehicle: alkali diluted with saline, higher = longer survival): 115 % of control and 116 % of control
T/C (endpoint: median survival time, dose: 79.0 mg/kg/injection, schedule: Q04DX005 (ip), vehicle: alkali diluted with saline, higher = longer survival): 93 % of control
T/C (endpoint: median survival time, dose: 119.0 mg/kg/injection, schedule: Q04DX005 (ip), vehicle: alkali diluted with saline, higher = longer survival): 123 % of control
T/C (endpoint: median survival time, dose: 267.0 mg/kg/injection, schedule: Q04DX005 (ip), vehicle: alkali diluted with saline, higher = longer survival): 106 % of control and 112 % of control
T/C (endpoint: median survival time, dose: 400.0 mg/kg/injection, schedule: Q04DX005 (ip), vehicle: alkali diluted with saline, higher = longer survival): 115 % of control
T/C (endpoint: median tumor weight (est.), dose: 50.0 mg/kg/injection, schedule: Q02DX011 (ip), vehicle: alkali diluted with saline, higher = larger tumour): 91 % of control
T/C (endpoint: median tumor weight (est.), dose: 100.0 mg/kg/injection, schedule: Q02DX011 (ip), vehicle: alkali diluted with saline, higher = larger tumour): 66 % of control

CC1(C)OC(C)(C)c2c1nnc(-c1ccccc1[N+](=O)[O-])[n+]2[O-]
T/C (endpoint: median survival time, dose: 50.0 mg/kg/injection, schedule: Q01DX009 (ip), vehicle: saline with Tween-80, higher = longer survival): 108 % of control
T/C (endpoint: median survival time, dose: 100.0 mg/kg/injection, schedule: Q01DX009 (ip), vehicle: saline with Tween-80, higher = longer survival): 99 % of control
T/C (endpoint: median survival time, dose: 200.0 mg/kg/injection, schedule: Q01DX009 (ip), vehicle: saline with Tween-80, higher = longer survival): 103 % of control
T/C (endpoint: median tumor weight (est.), dose: 50.0 mg/kg/injection, schedule: Q01DX009 (ip), vehicle: saline with Tween-80, higher = larger tumour): 70 % of control
T/C (endpoint: median tumor weight (est.), dose: 100.0 mg/kg/injection, schedule: Q01DX009 (ip), vehicle: saline with Tween-80, higher = larger tumour): 110 % of control
T/C (endpoint: median tumor weight (est.), dose: 200.0 mg/kg/injection, schedule: Q01DX009 (ip), vehicle: saline with Tween-80, higher = larger tumour): 67 % of control

CN(N=O)C(=O)N[C@@H](C=O)[C@@H](O)[C@H](O)[C@H](O)CO
T/C (endpoint: mean tumor weight, dose: 9.38 mg/kg/injection, schedule: Q02DX011 (ip), vehicle: other, higher = larger tumour): 64 % of control
T/C (endpoint: mean tumor weight, dose: 18.75 mg/kg/injection, schedule: Q02DX011 (ip), vehicle: other, higher = larger tumour): 37 % of control and 56 % of control
T/C (endpoint: mean tumor weight, dose: 37.5 mg/kg/injection, schedule: Q02DX011 (ip), vehicle: other, higher = larger tumour): 11 % of control and 15 % of control
T/C (endpoint: mean tumor weight, dose: 75.0 mg/kg/injection, schedule: Q02DX011 (ip), vehicle: other, higher = larger tumour): 1 % of control
T/C (endpoint: median tumor weight (est.), dose: 9.38 mg/kg/injection, schedule: Q02DX011 (ip), vehicle: other, higher = larger tumour): 45 % of control
T/C (endpoint: median tumor weight (est.), dose: 18.75 mg/kg/injection, schedule: Q02DX011 (ip), vehicle: other, higher = larger tumour): 39 % of control and 60 % of control
T/C (endpoint: median tumor weight (est.), dose: 37.5 mg/kg/injection, schedule: Q02DX011 (ip), vehicle: other, higher = larger tumour): 10 % of control and 34 % of control
